# Laboratory results taken from US11234982B2, “Methods for treating ocular surface pain” (NOVARTIS AG, priority 2019, dated 2022).
# Tests used:
# healthy volunteers = assay: First in human study Part 2: MAD, incidence of adverse events and MTD; type: in vivo
# Procedure: Part 2 tested multiple ascending doses (MAD) of compound I, administering (i) 1 drop of 0.15%, 1.5%, 2.5%, 4 times daily (every 6 hours) for 7 days or (ii) 1 drop of 2.5%, 8 times daily (every 3 hours) for 7 days (supra-therapeutic dose) as eye drops.
# Safety assessments: Safety assessments consisted of collecting all adverse events (AEs), serious adverse events (SAEs), including systemic and ocular adverse events, along with their severity and relationship to study drug. Systemic safety assessments included regular monitoring of hematology, blood chemistry and urinalysis performed at study center and regular assessments of physical examination, vital signs (systolic and diastolic blood pressure, pulse rate, and body temperature), ECG, pregnancy and assessments of fertility and hand immersion test at 49° C. during MAD part. Ocular safety assessments included early treatment diabetic retinopathy study (ETDRS) visual acuity, intraocular pressure, slit-lamp biomicroscopy, corneal staining and dilated fundus exam.
# Inclusion Criteria: • Written informed consent was obtained before any assessment was performed. • Healthy male and female subjects aged 18 to 50 years (inclusive), and in good health as determined by past medical history, physical examination, vital signs, ECG, and laboratory tests at Screening. • At Screening, and Baseline, vital signs (systolic and diastolic blood pressure (BP) and pulse rate) were assessed in the sitting position after the subject had rested for at least 3 minutes and again after 3 minutes in the standing position. […] BMI=Body weight (kg)/[Height (m)]^2 • Subjects who were able to communicate well with the Investigator, to understand and comply with the requirements of the study. • For Part 3, subjects Baseline levels of eye sensitivity were to be in the range of 50 to 60 mm (inclusive) as measured by the Cochet-Bonnet esthesiometer.
# History of any chronic eye disease other than refractive error, incipient cataract, strabismic amblyopia, or anisometropic amblyopia. Subjects with a history of acute eye disease (such as infection, corneal abrasion or allergy) within the past 6 months from Screening were eligible if the disease was not active. • Any currently active ocular condition that required use of topical eye drops. • Subjects using continuous positive airway pressure or other sleep apnea devices.
# [1] = test system: patients undergoing photorefractive keratectomy (PRK) surgery; assay: PRK study: oral rescue medication (ORM) use; type: in vivo, human; details: for Number of patients who did not use oral rescue medication: 2.5%; for Number of patients who did not use oral rescue medication / Amount of oral rescue medication (Number of pills), Mean (SD) / Amount of oral rescue medication (Number of pills), Range / Amount of oral rescue medication (mg/kg of body weight), Range / Amount of oral rescue medication (mg/kg of body weight), Mean (SD): N = 40; for Amount of oral rescue medication (mg/kg of body weight), Mean (SD): tablet counted as 330 mg
# Procedure: The study was a proof of concept, double-masked, randomized, vehicle-controlled study of compound I administered as eye drops in addition to standard of care treatment in patients after PRK surgery. PRK surgery was performed as an outpatient procedure under topical anesthesia with removal of the corneal epithelium to expose the stroma for the laser ablation. Compound I dosing was as single eye drop of 2.5% (25 mg/ml, 0.925 mg/drop), administered four times daily (every six hours) in one eye from immediate post-op (time 0) to last dose at 72 hours.
# Rescue medication consisted of oral analgesic (acetaminophen 300 mg+codeine 30 mg) as needed up to a total of 10 tabs/day or 1-2 tabs every 4 hours.
# Rescue oral analgesics: It is not ethical to refuse pain control medication to patients postoperatively as part of a clinical trial. […] Because the use of oral rescue medication may be a potential confounder of the pain VAS evaluation, three approaches were used when analyzing pain VAS scores to account for the influence of pain meds (assuming 4 hours of rescue medication effect): (1) any recorded VAS score within 4 hours after use of rescue medication was considered missing; (2) all the recorded VAS scores was used; and (3) any recorded VAS scores within 4 hours after rescue medication use was imputed by the record taken prior to the rescue medication.
# [2] = MAD, 2.5% 8 times daily for 7 days, N = 6
smiles,measurement,setting,value
"CC(C)c1nc2cc(O)ccc2c(=O)n1-c1ccc(C#N)cc1 [Compound I, 4-(7-hydroxy-2-isopropyl-4-oxo-4H-quinazolin-3-yl)-benzonitrile]","AEs, Subjects with AEs: nE (AE events)",healthy volunteers; [2],3
same,"AEs, Subjects with AEs: nS (%) (subjects with at least one AE)",healthy volunteers; [2],2 (33.3) nS (%)
same,Serious AEs: nE,healthy volunteers; [2],0
same,Serious AEs: nS (%),healthy volunteers; [2],0 (0.0) nS (%)
same,Study drug-related AEs: nE,healthy volunteers; [2],2
same,Study drug-related AEs: nS (%),healthy volunteers; [2],1 (16.7) nS (%)
same,Study-drug related AEs (last line of Table 2): nE,healthy volunteers; [2],0
same,Study-drug related AEs (last line of Table 2): nS (%),healthy volunteers; [2],0 (0.0) nS (%)
same,Severity of adverse events of suspected causality to compound I,"healthy volunteers; Parts 1, 2 and 3, exception in the 2.5% 4 times daily cohort","mild severity, except for moderate severity eye irritation"
same,Most frequent ocular adverse events,"healthy volunteers; compound I treated, compared with placebo","corneal staining, hyperemia and mild anterior chamber inflammation, in levels similar to placebo"
same,Maximum Tolerated Dose (MTD),"healthy volunteers; maximum feasible concentration, 8 times daily for 7 days, eye drops",2.5%
same,"Amount of ORM (Number of pills), % Change (Compound I-Vehicle)/Vehicle",[1]; 0-6 hours post-operatively,−25%
same,"Amount of ORM (mg/kg of body weight), % Change (Compound I-Vehicle)/Vehicle",[1]; 0-6 hours post-operatively,−25%
same,Number of patients who did not use oral rescue medication,[1]; 0-6 hours post-operatively,23 (57.5%) n (%)
same,"Amount of oral rescue medication (Number of pills), Mean (SD)",[1]; 0-6 hours post-operatively,0.75 (1.032) Number of pills
same,"Amount of oral rescue medication (Number of pills), Range",[1]; 0-6 hours post-operatively,0.0-4.0 Number of pills
same,"Amount of oral rescue medication (mg/kg of body weight), Range",[1]; 0-6 hours post-operatively,0.0-19.2 mg/kg of body weight
same,"Amount of oral rescue medication (mg/kg of body weight), Mean (SD)",[1]; 0-6 hours post-operatively,3.32 (4.684) mg/kg of body weight
same,"Number of patients who did not use ORM, compound I-treated eye compared to Vehicle-treated eye","[1]; 0-6 hours, 0-12 hours and 0-24 hours post-operatively",higher
same,"Amount of ORM (Number of pills), % Change (Compound I-Vehicle)/Vehicle",[1]; 0-12 hours post-operatively,−15%
same,"Amount of ORM (mg/kg of body weight), % Change (Compound I-Vehicle)/Vehicle",[1]; 0-12 hours post-operatively,−17%
same,Number of patients who did not use oral rescue medication,[1]; 0-12 hours post-operatively,19 (47.5%) n (%)
same,"Amount of oral rescue medication (Number of pills), Mean (SD)",[1]; 0-12 hours post-operatively,1.40 (1.780) Number of pills
same,"Amount of oral rescue medication (Number of pills), Range",[1]; 0-12 hours post-operatively,0.0-6.0 Number of pills
same,"Amount of oral rescue medication (mg/kg of body weight), Range",[1]; 0-12 hours post-operatively,0.0-28.7 mg/kg of body weight
same,"Amount of oral rescue medication (mg/kg of body weight), Mean (SD)",[1]; 0-12 hours post-operatively,6.10 (8.062) mg/kg of body weight
same,"Amount of ORM (Number of pills), % Change (Compound I-Vehicle)/Vehicle",[1]; 0-24 hours post-operatively,−16%
same,"Amount of ORM (mg/kg of body weight), % Change (Compound I-Vehicle)/Vehicle",[1]; 0-24 hours post-operatively,−18%
same,Number of patients who did not use oral rescue medication,[1]; 0-24 hours post-operatively,16 (40.0%) n (%)
same,"Amount of oral rescue medication (Number of pills), Mean (SD)",[1]; 0-24 hours post-operatively,2.35 (2.751) Number of pills
same,"Amount of oral rescue medication (Number of pills), Range",[1]; 0-24 hours post-operatively,0.0-10.0 Number of pills
same,"Amount of oral rescue medication (mg/kg of body weight), Range",[1]; 0-24 hours post-operatively,0.0-47.9 mg/kg of body weight
same,"Amount of oral rescue medication (mg/kg of body weight), Mean (SD)",[1]; 0-24 hours post-operatively,10.17 (12.335) mg/kg of body weight
same,Number of patients who did not use oral rescue medication,[1]; 0-2 days post-operatively,11 (27.5%) n (%)
same,"Amount of ORM (Number of pills), % Change (Compound I-Vehicle)/Vehicle",[1]; 0-48 hours post-operatively,−13%
same,"Amount of ORM (mg/kg of body weight), % Change (Compound I-Vehicle)/Vehicle",[1]; 0-48 hours post-operatively,−14%
same,"Amount of oral rescue medication (Number of pills), Mean (SD)",[1]; 0-48 hours post-operatively,4.05 (4.466) Number of pills
same,"Amount of oral rescue medication (Number of pills), Range",[1]; 0-48 hours post-operatively,0.0-16.0 Number of pills
same,"Amount of oral rescue medication (mg/kg of body weight), Range",[1]; 0-48 hours post-operatively,0.0-76.6 mg/kg of body weight
same,"Amount of oral rescue medication (mg/kg of body weight), Mean (SD)",[1]; 0-48 hours post-operatively,17.59 (19.850) mg/kg of body weight
same,Number of patients who did not use oral rescue medication,[1]; 0-3 days post-operatively,11 (27.5%) n (%)
same,"Amount of ORM (Number of pills), % Change (Compound I-Vehicle)/Vehicle",[1]; 0-72 hours post-operatively,−14%
same,"Amount of ORM (mg/kg of body weight), % Change (Compound I-Vehicle)/Vehicle",[1]; 0-72 hours post-operatively,−15%
same,"Amount of oral rescue medication (Number of pills), Mean (SD)",[1]; 0-72 hours post-operatively,4.33 (4.896) Number of pills
same,"Amount of oral rescue medication (Number of pills), Range",[1]; 0-72 hours post-operatively,0.0-21.0 Number of pills
same,"Amount of oral rescue medication (mg/kg of body weight), Range",[1]; 0-72 hours post-operatively,0.0-87.4 mg/kg of body weight
same,"Amount of oral rescue medication (mg/kg of body weight), Mean (SD)",[1]; 0-72 hours post-operatively,18.70 (21.509) mg/kg of body weight
same,Amount of ORM (mg/kg of body weight) during compound I vs. Vehicle treatment,[1]; every time interval,less
same,ORM taken during compound I vs. Vehicle treatment (number of pills),[1]; every time interval during the study,less ORM taken
